# System: Detoxification protein genes
# Test: DNA chip mRNA expression in yeast, detoxification protein genes (Table 8)
# Format: cell-based, Saccharomyces cerevisiae S288C
# Experimental: Yeast (Saccharomyces cerevisiae S288C (α SUC2mal mel gap2 CUP1)) were incubated at 25° C. on YPD medium (yeast extract 1%, polypepton 2%, glucose 2%). One of toxic chemical substances was added to the cells at logarithmic growth phase, and the cells were further incubated for two hours. Cells were cultured without any chemical substance in the same condition, and were used as control. Concentrations of the chemical substances were defined to inhibit the growth of the yeast but not lead to death.
# After completion of the incubation, the culture was centrifuged to collect the cells. To the cells, sodium acetate buffer (50 mM sodium acetate, 10 mM EDTA, 1% SDS) was added, and the mixture was shaken at 65° C. for five minutes, followed by returning to room temperature, and obtaining the supernatant, of which the procedures were repeated two times. To the supernatant, ½ amount of a solution of phenol/chloroform was added, and the mixture was centrifuged to give a supernatant, which was added with an equal amount of chloroform, and the mixture was centrifuged to give a supernatant. To the supernatant, an equal amount of isopropanol containing 0.3 M sodium acetate was added, and the mixture was allowed to stand at room temperature for 30 minutes, after which the mixture was centrifuged to give a sediment of the whole RNAs. Seventy % ethanol was added to the sediment, and the mixture was again centrifuged to give a sediment, which was then dried and dissolved in water. mRNA was isolated from the whole RNAs as followings. In view of the fact that a poly A chain is attached to the 3′ terminus of mRNA, a polynucleotide having a poly T structure which was immobilized on the surface of latex beads was used to trap the mRNA, and then the mRNA was washed and eluted with spine column (Oligotex-dT30<Super>mRNA Purification Kit, Takara). Reverse transcription of the mRNA was conducted with a reverse transcriptase (Super Script II Reverse Transcriptase; catalogue No. 18064-014, GibcoBRL) using fluorescence-labeled nucleotides to give cDNAs that were introduced with Cy3-dUTP or Cy5-dUTP during the reverse transcription.
# The labeled cDNAs were dissolved in TE buffer (10mM Tris-HCl/1 mM EDTA, pH8.0), and the solution was dropped on the DNA chip containing the whole genes of yeast (DNA Chip Research Inc. Japan) so that the cDNAs were hybridized on the DNA chip at 65° C. for over 12 hours. The fluoresces intensity of the DNA chip was read with a scanner, and the ratio relative to the fluorescence intensity resulting from the absence of chemical substance was estimated as the following, which is shown in Tables 1 to 9: […]
structure (smiles),measurement,setting,value
"[Cl][Cd][Cl] [(2), CdCl2]",The level of expressed mRNA in the presence of chemical substance/The level of expressed mRNA in the absence of chemical substance,yeast gene YBL064C,2.8
same,The level of expressed mRNA in the presence of chemical substance/The level of expressed mRNA in the absence of chemical substance,yeast gene YBR008C,2.4
same,The level of expressed mRNA in the presence of chemical substance/The level of expressed mRNA in the absence of chemical substance,yeast gene YBR145W,0.7
same,The level of expressed mRNA in the presence of chemical substance/The level of expressed mRNA in the absence of chemical substance,yeast gene YBR244W,1.4
same,The level of expressed mRNA in the presence of chemical substance/The level of expressed mRNA in the absence of chemical substance,yeast gene YBR293W,3.1
same,The level of expressed mRNA in the presence of chemical substance/The level of expressed mRNA in the absence of chemical substance,yeast gene YCL035C,2.3
same,The level of expressed mRNA in the presence of chemical substance/The level of expressed mRNA in the absence of chemical substance,yeast gene YCL069W,15.7
same,The level of expressed mRNA in the presence of chemical substance/The level of expressed mRNA in the absence of chemical substance,yeast gene YCR083W,2.8
same,The level of expressed mRNA in the presence of chemical substance/The level of expressed mRNA in the absence of chemical substance,yeast gene YDL100C,1.2
same,The level of expressed mRNA in the presence of chemical substance/The level of expressed mRNA in the absence of chemical substance,yeast gene YDL168W,2.0
same,The level of expressed mRNA in the presence of chemical substance/The level of expressed mRNA in the absence of chemical substance,yeast gene YDR256C,1.4
same,The level of expressed mRNA in the presence of chemical substance/The level of expressed mRNA in the absence of chemical substance,yeast gene YDR453C,2.7
same,The level of expressed mRNA in the presence of chemical substance/The level of expressed mRNA in the absence of chemical substance,yeast gene YDR513W,2.5
same,The level of expressed mRNA in the presence of chemical substance/The level of expressed mRNA in the absence of chemical substance,yeast gene YDR538W,1.1
same,The level of expressed mRNA in the presence of chemical substance/The level of expressed mRNA in the absence of chemical substance,yeast gene YEL027W,0.6
same,The level of expressed mRNA in the presence of chemical substance/The level of expressed mRNA in the absence of chemical substance,yeast gene YEL065W,3.8
same,The level of expressed mRNA in the presence of chemical substance/The level of expressed mRNA in the absence of chemical substance,yeast gene YER185W,3.1
same,The level of expressed mRNA in the presence of chemical substance/The level of expressed mRNA in the absence of chemical substance,yeast gene YFL050C,1.0
same,The level of expressed mRNA in the presence of chemical substance/The level of expressed mRNA in the absence of chemical substance,yeast gene YGL013C,1.2
same,The level of expressed mRNA in the presence of chemical substance/The level of expressed mRNA in the absence of chemical substance,yeast gene YGL254W,1.1
same,The level of expressed mRNA in the presence of chemical substance/The level of expressed mRNA in the absence of chemical substance,yeast gene YGR088W,1.2
same,The level of expressed mRNA in the presence of chemical substance/The level of expressed mRNA in the absence of chemical substance,yeast gene YGR138C,1.6
same,The level of expressed mRNA in the presence of chemical substance/The level of expressed mRNA in the absence of chemical substance,yeast gene YGR197C,2.4
same,The level of expressed mRNA in the presence of chemical substance/The level of expressed mRNA in the absence of chemical substance,yeast gene YGR209C,3.1
same,The level of expressed mRNA in the presence of chemical substance/The level of expressed mRNA in the absence of chemical substance,yeast gene YGR224W,1.2
same,The level of expressed mRNA in the presence of chemical substance/The level of expressed mRNA in the absence of chemical substance,yeast gene YHL040C,4.4
same,The level of expressed mRNA in the presence of chemical substance/The level of expressed mRNA in the absence of chemical substance,yeast gene YHL047C,4.4
same,The level of expressed mRNA in the presence of chemical substance/The level of expressed mRNA in the absence of chemical substance,yeast gene YHR008C,6.9
same,The level of expressed mRNA in the presence of chemical substance/The level of expressed mRNA in the absence of chemical substance,yeast gene YHR048W,1.4
same,The level of expressed mRNA in the presence of chemical substance/The level of expressed mRNA in the absence of chemical substance,yeast gene YHR053C,2.1
same,The level of expressed mRNA in the presence of chemical substance/The level of expressed mRNA in the absence of chemical substance,yeast gene YHR055C,1.8
same,The level of expressed mRNA in the presence of chemical substance/The level of expressed mRNA in the absence of chemical substance,yeast gene YIR002C,1.1
same,The level of expressed mRNA in the presence of chemical substance/The level of expressed mRNA in the absence of chemical substance,yeast gene YIR038C,3.5
same,The level of expressed mRNA in the presence of chemical substance/The level of expressed mRNA in the absence of chemical substance,yeast gene YJL101C,1.9
same,The level of expressed mRNA in the presence of chemical substance/The level of expressed mRNA in the absence of chemical substance,yeast gene YJR104C,1.8
same,The level of expressed mRNA in the presence of chemical substance/The level of expressed mRNA in the absence of chemical substance,yeast gene YKL026C,2.0
same,The level of expressed mRNA in the presence of chemical substance/The level of expressed mRNA in the absence of chemical substance,yeast gene YKL064W,0.9
same,The level of expressed mRNA in the presence of chemical substance/The level of expressed mRNA in the absence of chemical substance,yeast gene YKR066C,1.4
same,The level of expressed mRNA in the presence of chemical substance/The level of expressed mRNA in the absence of chemical substance,yeast gene YKR105C,0.9
same,The level of expressed mRNA in the presence of chemical substance/The level of expressed mRNA in the absence of chemical substance,yeast gene YKR106W,0.8
same,The level of expressed mRNA in the presence of chemical substance/The level of expressed mRNA in the absence of chemical substance,yeast gene YLL028W,0.9
same,The level of expressed mRNA in the presence of chemical substance/The level of expressed mRNA in the absence of chemical substance,yeast gene YLL057C,59.9
same,The level of expressed mRNA in the presence of chemical substance/The level of expressed mRNA in the absence of chemical substance,yeast gene YLL060C,4.2
same,The level of expressed mRNA in the presence of chemical substance/The level of expressed mRNA in the absence of chemical substance,yeast gene YLR043C,1.4
same,The level of expressed mRNA in the presence of chemical substance/The level of expressed mRNA in the absence of chemical substance,yeast gene YLR046C,1.7
same,The level of expressed mRNA in the presence of chemical substance/The level of expressed mRNA in the absence of chemical substance,yeast gene YML028W,2.2
same,The level of expressed mRNA in the presence of chemical substance/The level of expressed mRNA in the absence of chemical substance,yeast gene YML116W,1.3
same,The level of expressed mRNA in the presence of chemical substance/The level of expressed mRNA in the absence of chemical substance,yeast gene YMR015C,0.7
same,The level of expressed mRNA in the presence of chemical substance/The level of expressed mRNA in the absence of chemical substance,yeast gene YMR038C,1.7
same,The level of expressed mRNA in the presence of chemical substance/The level of expressed mRNA in the absence of chemical substance,yeast gene YNL239W,2.4
same,The level of expressed mRNA in the presence of chemical substance/The level of expressed mRNA in the absence of chemical substance,yeast gene YNL241C,2.5
same,The level of expressed mRNA in the presence of chemical substance/The level of expressed mRNA in the absence of chemical substance,yeast gene YNL259C,4.5
same,The level of expressed mRNA in the presence of chemical substance/The level of expressed mRNA in the absence of chemical substance,yeast gene YOL158C,4.0
same,The level of expressed mRNA in the presence of chemical substance/The level of expressed mRNA in the absence of chemical substance,yeast gene YOR031W,1.7
same,The level of expressed mRNA in the presence of chemical substance/The level of expressed mRNA in the absence of chemical substance,yeast gene YOR153W,0.9
same,The level of expressed mRNA in the presence of chemical substance/The level of expressed mRNA in the absence of chemical substance,yeast gene YOR247W,0.6
same,The level of expressed mRNA in the presence of chemical substance/The level of expressed mRNA in the absence of chemical substance,yeast gene YOR251C,1.0
same,The level of expressed mRNA in the presence of chemical substance/The level of expressed mRNA in the absence of chemical substance,yeast gene YOR273C,1.0
same,The level of expressed mRNA in the presence of chemical substance/The level of expressed mRNA in the absence of chemical substance,yeast gene YPL163C,0.7
same,The level of expressed mRNA in the presence of chemical substance/The level of expressed mRNA in the absence of chemical substance,yeast gene YPR200C,1.7
